According to paper PMC12662848 (Cancer Chemotherapy and Pharmacology, 2025):

Legend:
[1] = Enzalutamide and N-desmethyl enzalutamide trough plasma PK (LC–MS/MS); settings: for ENZAdm Cmin D1: 24 h sample relative to Cmin D0; for ENZAdm Cmin D1 / ENZAdm Cmin D0: geometric mean (geometric SD); for ENZAdm Cmin D0: pre 1st venetoclax sample on day 1
Method: Additional samples were collected prior to dosing on days 8, 15, 21, and 57 (Fig. 1A). Samples were centrifuged at approximately 1,000 × g, and plasma was stored at −70 °C or colder until analysis.
Plasma PK parameters were derived from the data by non-compartmental methods with WinNonlin (Certara, Princeton, NJ). Statistical analyses for PK parameter values were performed using SPSS 27.0 for Windows (SPSS Inc., Chicago, IL). Within patient variability in Cmin was calculated from the day 8 through day 57 data across doses by calculating 100 × the square root of the mean square within groups obtained after ANOVA of log-transformed values of these parameters with subject as a factor.

[2] = cited from earlier work
CYP3A4 = settings: a sensitive CYP3A4 substrate; cited from earlier work
AR−/lo LAPC9-CRPC = system: AR−/lo LAPC9-CRPC; set-up: method as in PMID 30190514; settings: single agent; cited from earlier work

SMILES	Intrapatient variability in Cmin ([1]; N-desmethyl enzalutamide, from day 1 through 57) [%CV]	ENZAdm Cmin D1 ([1]; venetoclax 400 mg (N=3))	ENZAdm Cmin D0 ([1]; venetoclax 400 mg (N=3))	ENZAdm Cmin D1 ([1]; venetoclax 600 mg (N=3))	ENZAdm Cmin D0 ([1]; venetoclax 600 mg (N=3))	ENZAdm Cmin D1 ([1]; venetoclax 800 mg (N=4))	N-desmethyl enzalutamide concentration in previous reports [2] [µg/L]	Intrapatient variability in Cmin ([1]; male, human, in vivo) [%CV]	ENZA Cmin D1 ([1]; male, human, in vivo, 24 h)	Increase in oral clearance of midazolam (CYP3A4)	Enzalutamide concentration in previous reports [2] [µg/L]	Growth of AR−/lo LAPC9-CRPC (AR−/lo LAPC9-CRPC)
CC1(C)C(=O)N(c2ccc(C#N)c(C(F)(F)F)c2)C(=S)N1c1ccc(C(N)=O)c(F)c1 [N-desmethyl enzalutamide]	10	7.59 (1.34) µg/mL	7.04 (1.31) µg/mL	15.1 (1.12) µg/mL	15.2 (1.07) µg/mL	14.2 (1.21) µg/mL	13	–	–	–	–	–
CNC(=O)c1ccc(N2C(=S)N(c3ccc(C#N)c(C(F)(F)F)c3)C(=O)C2(C)C)cc1F [enzalutamide]	–	–	–	–	–	–	–	7.0	12.4 (1.19) µg/mL	sevenfold	11.4	not
